Assay results reported in patent publication US8637672B2 (Deciphera Pharmaceuticals, LLC, priority 2010, dated 2014).
Read-outs that look alike come from different tables or passages of the source.

Legend:
c-MET kinase = target: T1, c-MET kinase (Homo sapiens, UniProt P08581); test: c-MET Kinase Assay; type: biochemical; conditions: for fold potency versus c-MET kinase relative to corresponding mono-fluoro analog: Compound D vs Compound E, Compound G vs Compound F; for IC50: methods of the Biological Data section
T1 construct: His6 with TEV-site leader (N); purchased Invitrogen PV3143
Method: Activity of c-MET kinase (Seq. ID No. 2) was determined by following the production of ADP from the kinase reaction through coupling with the pyruvate kinase/lactate dehydrogenase system (e.g., Schindler et al. Science 2000, 289, pp. 1938-1942). In this assay, the oxidation of NADH (thus the decrease at A340 nm) was continuously monitored spectrophotometrically. The reaction mixture (100 μl) contained c-MET (c-MET residues: 956-1390, from Invitrogen, catalogue #PV3143, 6 nM), polyE4Y (1 mg/mL), MgCl2 (10 mM), pyruvate kinase (4 units), lactate dehydrogenase (0.7 units), phosphoenol pyruvate (1 mM), and NADH (0.28 mM) in 90 mM Tris buffer containing 0.25 mM DTT, 0.2% octyl-glucoside and 1% DMSO, 7.5. Test compounds were incubated with c-MET (Seq. ID No. 2) and other reaction reagents at 22° C. for 0.5 h before ATP (100 μM) was added to start the reaction. The absorption at 340 nm was monitored continuously for 2 hours at 30° C. on Polarstar Optima plate reader (BMG). The reaction rate was calculated using the 1.0 to 2.0 h time frame. Percent inhibition was obtained by comparison of reaction rate with that of a control (i.e., with no test compound). IC50 values were calculated from a series of percent inhibition values determined at a range of inhibitor concentrations using software routines as implemented in the GraphPad Prism software package.

RON kinase [1] = target: T2, RON kinase (Homo sapiens, UniProt Q04912); test: RON Kinase Assay; type: biochemical; conditions: for IC50: methods of the Biological Data section; for Fold Selectivity RON/MET: ratio RON IC50 / MET IC50
T2 construct: GST tagged recombinant human RON, amino acids 983-1400; GST; host or cells: insect cells
T2 sequence (Q04912 983-1400): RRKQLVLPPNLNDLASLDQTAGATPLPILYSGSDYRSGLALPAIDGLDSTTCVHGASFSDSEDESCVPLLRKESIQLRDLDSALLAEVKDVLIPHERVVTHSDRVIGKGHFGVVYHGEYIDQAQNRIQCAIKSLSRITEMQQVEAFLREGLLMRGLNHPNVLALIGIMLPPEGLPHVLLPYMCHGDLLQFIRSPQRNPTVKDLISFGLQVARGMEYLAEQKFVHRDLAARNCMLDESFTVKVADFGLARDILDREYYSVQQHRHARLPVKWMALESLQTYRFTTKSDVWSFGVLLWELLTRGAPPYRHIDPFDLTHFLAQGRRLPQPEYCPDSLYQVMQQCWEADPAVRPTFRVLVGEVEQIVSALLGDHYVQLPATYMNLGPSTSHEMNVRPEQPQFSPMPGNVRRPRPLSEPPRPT
Method: Activity of RON kinase was determined by a radioactive filtration binding assay where incorporation of ^33P from ^33P-γ-ATP to the substrate was measured. In this assay, detection of ^33P was indicative of RON phosphorylation activity which was directly proportional to the amount of phosphorylated peptide substrate ([…], SEQ ID NO: 4). Initially, the reaction mixture contained: 400 nM RON, 20 mM HEPES, pH 7.5, 10 mM MgCl2, 2 mM MnCl2, 1 mM EGTA, 0.02% Brij 35, 0.02 mg/mL BSA, 0.1 mM Na3VO4, and 2 mM DTT. The reaction mixture was incubated with compound at room temperature for 30 minutes. To initiate the reaction, an equal volume of 20 μM ATP and 0.4 mg/mL peptide substrate were added and then incubated at room temperature for 2 hours. The final assay conditions were: 200 nM RON, 10 μM ATP, 0.2 mg/mL substrate 20 mM HEPES, pH 7.5, 10 mM MgCl2, 1 mM EGTA, 0.02% Brij 35, 0.02 mg/mL BSA, 0.1 mM Na3VO4, 2 mM DTT, and 1% DMSO. IC50 values were calculated from a series of % Activity values determined at a range of inhibitor concentrations using software routines as implemented in the GraphPad Prism software package.
GST tagged recombinant human RON, amino acids 983-1400. Expressed in insect cells.

RET kinase = target: T3, RET kinase (Homo sapiens, UniProt P07949); test: RET Kinase Assay; type: biochemical; conditions: for IC50: methods of the Biological Data section; for Fold Selectivity RET/MET: ratio RET IC50 / MET IC50
T3 construct: GST tagged recombinant human RET, amino acids 658-1114; GST; purchased Invitrogen; host or cells: insect cells
T3 sequence (P07949 658-1114): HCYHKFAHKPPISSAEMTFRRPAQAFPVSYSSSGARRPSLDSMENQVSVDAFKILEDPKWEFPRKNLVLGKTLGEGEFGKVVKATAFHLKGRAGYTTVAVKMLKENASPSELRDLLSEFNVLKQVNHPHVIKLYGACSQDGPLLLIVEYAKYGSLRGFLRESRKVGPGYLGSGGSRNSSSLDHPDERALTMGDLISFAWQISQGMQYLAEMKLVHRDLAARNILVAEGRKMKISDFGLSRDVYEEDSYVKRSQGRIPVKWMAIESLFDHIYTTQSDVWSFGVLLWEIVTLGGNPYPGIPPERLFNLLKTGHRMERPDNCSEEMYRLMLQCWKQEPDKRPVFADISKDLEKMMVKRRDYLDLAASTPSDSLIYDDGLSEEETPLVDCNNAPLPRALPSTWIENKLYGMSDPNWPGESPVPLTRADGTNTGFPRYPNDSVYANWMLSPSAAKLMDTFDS
Method: Activity of RET kinase was determined by following the production of ADP from the kinase reaction through coupling with the pyruvate kinase/lactate dehydrogenase system (see e.g., Schindler et al. Science (2000) 289: 1938-1942). In this assay, the oxidation of NADH (thus the decrease at A340 nm) was continuously monitored spectrophotometrically. The reaction mixture (100 μl) contained RET (amino acid residues 658-1114, from Invitrogen, 2 nM), polyE4Y (1.5 mg/ml), MgCl2 (18 mM), pyruvate kinase (4 units), lactate dehydrogenase (0.7 units), phosphoenol pyruvate (1 mM), and NADH (0.28 mM) in 90 mM […] buffer containing 0.2% octyl-glucoside, 1 mM DTT and 1% DMSO, pH 7.5. Test compounds were incubated with RET kinase and other reaction reagents at 22° C. for <2 min before ATP (500 μM) was added to start the reaction. The absorption at 340 nm was monitored continuously for 3 hours at 30° C. on BioTek Synergy 2 Reader. The reaction rate was calculated using the 1 to 2 h time frame. Percent inhibition was obtained by comparison of reaction rate with that of a control (i.e., with no test compound). IC50 values were calculated from a series of percent inhibition values determined at a range of inhibitor concentrations using software routines as implemented in the GraphPad Prism software package.
GST tagged recombinant human RET, amino acids 658-1114. Expressed in insect cells.

RON kinase [2] = target: T2, RON kinase; conditions: values published in the '188/'556 applications; cited from earlier work

T1 sequence (P08581 with tags, fused parts or gaps): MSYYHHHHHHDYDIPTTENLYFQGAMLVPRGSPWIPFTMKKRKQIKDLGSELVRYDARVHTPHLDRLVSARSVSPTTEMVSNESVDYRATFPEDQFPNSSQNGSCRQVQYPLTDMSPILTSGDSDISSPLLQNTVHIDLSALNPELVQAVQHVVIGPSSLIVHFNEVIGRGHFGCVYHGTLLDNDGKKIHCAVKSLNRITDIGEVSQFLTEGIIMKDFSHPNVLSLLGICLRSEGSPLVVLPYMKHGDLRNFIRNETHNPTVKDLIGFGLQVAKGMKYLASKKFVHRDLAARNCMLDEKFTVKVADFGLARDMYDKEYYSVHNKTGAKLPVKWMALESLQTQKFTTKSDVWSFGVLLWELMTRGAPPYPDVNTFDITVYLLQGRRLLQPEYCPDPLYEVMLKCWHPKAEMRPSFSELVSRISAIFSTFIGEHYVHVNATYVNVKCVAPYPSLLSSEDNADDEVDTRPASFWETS

fold potency versus c-MET kinase relative to corresponding mono-fluoro analog (c-MET kinase) [fold] | IC50 (c-MET kinase) [nM] | IC50 (RON kinase [1]) [nM] | Fold Selectivity RON/MET (RON kinase [1]) | IC50 (RET kinase) [nM] | Fold Selectivity RET/MET (RET kinase) | SMILES | IC50 (RON kinase [2]) [nM]
6.5 | 4 | ≥ 5000 | >1,250 | > 3300 | >825 | CC(=O)Nc1cc(Oc2cc(F)c(NC(=O)C3(C(=O)Nc4ccc(F)cc4)CC3)cc2F)ccn1 [Compound D, N-(4-(2-acetamidopyridin-4-yloxy)-2,5-difluorophenyl)-N′-(4-fluorophenyl)cyclopropane-1,1-dicarboxamide] | –
– | 26 | 100 | 3.85 | 43 | 1.65 | CC(=O)Nc1cc(Oc2ccc(NC(=O)C3(C(=O)Nc4ccc(F)cc4)CC3)c(F)c2)ccn1 [Compound E, N-(4-(2-acetamidopyridin-4-yloxy)-2-fluorophenyl)-N′-(4-fluorophenyl)cyclopropane-1,1-dicarboxamide] | –
1.1 | – | – | 0.04 | – | 0.81 | CN1CCN(C2CCN(C(=O)Nc3cc(Oc4cc(F)c(NC(=O)C5(C(=O)Nc6ccc(F)cc6)CC5)cc4F)ccn3)CC2)CC1 [Compound G] | 2
– | – | – | 0.75 | – | 7 | O=C(Nc1cc(Oc2cc(F)c(NC(=O)C3(C(=O)Nc4ccc(F)cc4)CC3)cc2F)ccn1)N1CC(CO)C1 [Compound H] | 3
